Source: patent publication US4877792A, “Heteroaryloxy-beta-carboline derivatives, their preparation and their use as medicinal agents” (Schering Aktiengesellschaft, priority 1986, dated 1989)

Columns and labels:
benzodiazepine receptors = assay: displacement of 3H-flunitrazepam binding, in vitro (rat brain membranes); conditions: 3H-flunitrazepam 1.0 nM, 0° C.
benzodiazepine receptor = assay: inhibition of 3H-flunitrazepam binding in live brain, in vivo (mice); conditions: normally i.p., 3H-flunitrazepam i.v. after 15 min
[1] = 4-plate assay, anxiolytic activity (Boissier et al.); assay type: in vivo; conditions: Mus musculus, ip; minimum lowest dose which increases locomotor activity of punished mice; i.p.; read-out: Anxiolytic Activity MED
Method: The compounds of this invention display especially anxiolytic and anticonvulsive activities. In order to study the anxiolytic effect, the compounds were tested in the 4-plate assay according to the method by Boissier et al., Eur. J. Pharmacol. 4:145-150 ([…]). The table indicates the minimum lowest dose (MED) which increases the locomotor activity of the punished mice after i.p. treatment.

| Compound | Inhibition of 3H-Flunitrazepam Binding IC50 in vitro (benzodiazepine receptors) [ng/mL] | Inhibition of 3H-Flunitrazepam Binding ED50 in vivo (benzodiazepine receptor) [mg/kg] | minimal effective dose [1] [mg/kg] |
| --- | --- | --- | --- |
| CCc1noc(-c2cc3c(cn2)[nH]c2cccc(Oc4ncccn4)c23)n1 | 0.28 | 2.8 | 3.13 |
| COCc1c(C(=O)OC(C)C)ncc2[nH]c3ccc(Oc4ccc(Br)cn4)cc3c12 | 0.75 | 2.7 | 3.13 |
